Data reported in US20230295200A1 (REGENTS OF THE UNIVERSITY OF MICHIGAN, priority 2022, published 2023).

Tests used:
STAT6 protein = target: T1, STAT6 protein (Homo sapiens, UniProt P42226); assay: Fluorescence polarization (FP) binding assay, STAT6; conditions: FP competition, 5 nM fluorescein-labeled tracer, 200 nM protein, PBS pH7.4; read-out: Binding STAT6
T1 sequence (P42226 1-847): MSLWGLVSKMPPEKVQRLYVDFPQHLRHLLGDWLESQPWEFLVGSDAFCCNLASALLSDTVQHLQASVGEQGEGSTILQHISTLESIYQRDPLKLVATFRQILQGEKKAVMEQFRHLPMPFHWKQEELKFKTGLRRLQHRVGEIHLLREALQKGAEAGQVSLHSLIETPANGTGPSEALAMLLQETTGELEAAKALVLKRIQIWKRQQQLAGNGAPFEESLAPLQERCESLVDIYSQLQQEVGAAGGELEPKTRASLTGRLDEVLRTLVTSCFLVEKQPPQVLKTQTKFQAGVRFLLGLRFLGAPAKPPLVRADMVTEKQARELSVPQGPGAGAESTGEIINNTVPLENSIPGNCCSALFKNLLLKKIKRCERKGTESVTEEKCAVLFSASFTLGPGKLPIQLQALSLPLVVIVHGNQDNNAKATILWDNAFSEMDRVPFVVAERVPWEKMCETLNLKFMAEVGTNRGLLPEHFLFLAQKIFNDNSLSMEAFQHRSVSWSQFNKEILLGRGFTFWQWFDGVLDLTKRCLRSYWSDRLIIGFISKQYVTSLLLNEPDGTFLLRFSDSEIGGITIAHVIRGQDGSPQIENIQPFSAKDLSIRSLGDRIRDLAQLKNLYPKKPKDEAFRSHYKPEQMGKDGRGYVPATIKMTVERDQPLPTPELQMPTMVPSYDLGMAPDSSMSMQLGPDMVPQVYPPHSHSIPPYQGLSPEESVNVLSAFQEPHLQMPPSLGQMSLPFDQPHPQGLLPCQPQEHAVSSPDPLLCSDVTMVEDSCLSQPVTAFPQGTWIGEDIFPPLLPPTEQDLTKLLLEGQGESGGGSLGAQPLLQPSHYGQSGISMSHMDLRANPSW
Procedure, shortened: (§1)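 Competitive FP read-out with 5 nM fluorescein-labeled tracer and 200 nM STAT5 or STAT6 protein in PBS pH 7.4 containing 0.01% BGG, 0.01% Tween-20 and 2 mM DTT. Plates were shaken 15 min, then equilibrated 1 h at room temperature; inhibition constants came from nonlinear curve fitting.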

STAT5A = target: T2, STAT5A (Homo sapiens, UniProt P42229); assay: Fluorescence polarization (FP) binding assay, STAT5A; conditions: FP competition, 5 nM fluorescein-labeled tracer, 200 nM protein, PBS pH7.4
T2 sequence (P42229 1-794): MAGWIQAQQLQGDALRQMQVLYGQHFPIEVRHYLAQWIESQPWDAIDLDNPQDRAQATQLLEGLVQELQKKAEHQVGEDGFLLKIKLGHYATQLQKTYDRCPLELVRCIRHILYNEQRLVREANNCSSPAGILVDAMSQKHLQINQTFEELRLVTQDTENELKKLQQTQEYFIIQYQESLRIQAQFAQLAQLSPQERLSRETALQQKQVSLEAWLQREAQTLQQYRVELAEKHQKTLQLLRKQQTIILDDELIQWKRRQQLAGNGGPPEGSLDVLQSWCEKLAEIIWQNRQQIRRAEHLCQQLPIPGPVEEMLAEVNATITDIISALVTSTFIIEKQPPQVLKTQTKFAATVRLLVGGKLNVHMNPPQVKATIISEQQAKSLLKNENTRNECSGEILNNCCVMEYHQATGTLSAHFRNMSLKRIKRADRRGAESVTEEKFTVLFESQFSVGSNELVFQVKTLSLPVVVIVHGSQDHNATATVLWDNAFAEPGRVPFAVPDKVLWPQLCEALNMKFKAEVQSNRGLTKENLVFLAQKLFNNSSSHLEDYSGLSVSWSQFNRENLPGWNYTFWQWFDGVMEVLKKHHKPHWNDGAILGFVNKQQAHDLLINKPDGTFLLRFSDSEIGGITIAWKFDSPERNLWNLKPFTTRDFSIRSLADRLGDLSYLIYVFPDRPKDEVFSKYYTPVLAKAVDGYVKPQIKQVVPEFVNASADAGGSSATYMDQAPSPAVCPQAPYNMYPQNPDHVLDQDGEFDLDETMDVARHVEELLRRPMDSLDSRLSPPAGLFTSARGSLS
Procedure, shortened: as §1

| Structure (SMILES) | Ki (STAT6 protein) [µM] | Ki (STAT5A) [µM] |
| --- | --- | --- |
| CC(C)(C)[C@H](NC(=O)c1cc2cc(C(F)(F)P(=O)(O)O)ccc2s1)C(=O)N1CCC[C@H]1C(=O)N1C[C@H]2CCN(C(=O)c3ccc(F)cc3)[C@H]2C1 [Compound 89, (difluoro(2-(((S)-1-((S)-2-((3aR,6aR)-1-(4-fluorobenzoyl)octahydropyrrolo[3,4-b]pyrrole-5-carbonyl)pyrrolidin-1-yl)-3,3-dimethyl-1-oxobutan-2-yl)carbamoyl)benzo[b]thiophen-5-yl)methyl)phosphonic acid] | > 10 | > 10 |
| CC(C)(C)[C@H](NC(=O)c1cc2cc(C(F)(F)P(=O)(O)O)ccc2s1)C(=O)N1CCC[C@H]1C(=O)N1CC[C@H]2CN(C(=O)c3ccc(F)cc3)C[C@H]21 [Compound 94, (difluoro(2-(((S)-1-((S)-2-((3aS,6aS)-5-(4-fluorobenzoyl)octahydropyrrolo[3,4-b]pyrrole-1-carbonyl)pyrrolidin-1-yl)-3,3-dimethyl-1-oxobutan-2-yl)carbamoyl)benzo[b]thiophen-5-yl)methyl)phosphonic acid] | > 10 | > 10 |
| CC(C)(C)[C@H](NC(=O)c1cc2cc(C(F)(F)P(=O)(O)O)ccc2s1)C(=O)N1CCC[C@H]1C(=O)N1C[C@@H]2CCN(C(=O)c3ccc(F)cc3)[C@@H]2C1 [Compound 97, (difluoro(2-(((S)-1-((S)-2-((3aS,6aS)-1-(4-fluorobenzoyl)octahydropyrrolo[3,4-b]pyrrole-5-carbonyl)pyrrolidin-1-yl)-3,3-dimethyl-1-oxobutan-2-yl)carbamoyl)benzo[b]thiophen-5-yl)methyl)phosphonic acid] | > 10 | > 10 |
| CC1(c2ccc(F)cc2)CN(C(=O)[C@@H]2CCCN2C(=O)[C@@H](NC(=O)c2cc3cc(C(F)(F)P(=O)(O)O)ccc3s2)C(C)(C)C)CCO1 (stereo partly drawn) [Compound 100, (difluoro(2-(((2S)-1-((2S)-2-(2-(4-fluorophenyl)-2-methylmorpholine-4-carbonyl)pyrrolidin-1-yl)-3,3-dimethyl-1-oxobutan-2-yl)carbamoyl)benzo[b]thiophen-5-yl)methyl)phosphonic acid] | 1 to 10 | > 10 |
| CC1(c2ccc(Cl)cc2)CN(C(=O)[C@@H]2CCCN2C(=O)[C@@H](NC(=O)c2cc3cc(C(F)(F)P(=O)(O)O)ccc3s2)C(C)(C)C)CCO1 (stereo partly drawn) [Compound 101, ((2-(((2S)-1-((2S)-2-(2-(4-chlorophenyl)-2-methylmorpholine-4-carbonyl)pyrrolidin-1-yl)-3,3-dimethyl-1-oxobutan-2-yl)carbamoyl)benzo[b]thiophen-5-yl)difluoromethyl)phosphonic acid] | 1 to 10 | > 10 |
| CC(C)(C)[C@H](NC(=O)c1cc2cc(C(F)(F)P(=O)(O)O)ccc2s1)C(=O)N1CCC[C@H]1C(=O)N1CCOC(c2ccc(F)cc2)C1 (stereo partly drawn) [Compound 102, (difluoro(2-(((2S)-1-((2S)-2-(2-(4-fluorophenyl)morpholine-4-carbonyl)pyrrolidin-1-yl)-3,3-dimethyl-1-oxobutan-2-yl)carbamoyl)benzo[b]thiophen-5-yl)methyl)phosphonic acid] | 0.1 to 1 | > 10 |
| CC(C)(C)[C@H](NC(=O)c1cc2cc(C(F)(F)P(=O)(O)O)ccc2s1)C(=O)N1CCC[C@H]1C(=O)N1CCOC(c2cccc(Cl)c2)C1 (stereo partly drawn) [Compound 103, ((2-(((2S)-1-((2S)-2-(2-(3-chlorophenyl)morpholine-4-carbonyl)pyrrolidin-1-yl)-3,3-dimethyl-1-oxobutan-2-yl)carbamoyl)benzo[b]thiophen-5-yl)difluoromethyl)phosphonic acid] | 1 to 10 | 1 to 10 |

Second part, the compound after the results:

| Ki (STAT6 protein) [µM] | Ki (STAT5A) [µM] | Structure (SMILES) |
| --- | --- | --- |
| > 10 | > 10 | CCCCC(=O)N1CC[C@@H]2CN(C(=O)[C@@H]3CCCN3C(=O)[C@@H](NC(=O)c3cc4cc(C(F)(F)P(=O)(O)O)ccc4s3)C(C)(C)C)C[C@@H]21 [Compound 88, ((2-(((S)-3,3-dimethyl-1-oxo-1-((S)-2-((3aR,6aR)-1-pentanoyloctahydropyrrolo[3,4-b]pyrrole-5-carbonyl)pyrrolidin-1-yl)butan-2-yl)carbamoyl)benzo[b]thiophen-5-yl)difluoromethyl)phosphonic acid] |
| > 10 | > 10 | CC(=O)N1CC[C@H]2CCN(C(=O)[C@@H]3CCCN3C(=O)[C@@H](NC(=O)c3cc4cc(C(F)(F)P(=O)(O)O)ccc4s3)C(C)(C)C)[C@H]2C1 [Compound 90, ((2-(((S)-1-((S)-2-((3aS,7aR)-6-acetyloctahydro-1H-pyrrolo[2,3-c]pyridine-1-carbonyl)pyrrolidin-1-yl)-3,3-dimethyl-1-oxobutan-2-yl)carbamoyl)benzo[b]thiophen-5-yl)difluoromethyl)phosphonic acid] |
| > 10 | > 10 | CCCCC(=O)N1CC[C@H]2CCN(C(=O)[C@@H]3CCCN3C(=O)[C@@H](NC(=O)c3cc4cc(C(F)(F)P(=O)(O)O)ccc4s3)C(C)(C)C)[C@H]2C1 [Compound 91, ((2-(((S)-3,3-dimethyl-1-oxo-1-((S)-2-((3aS,7aR)-6-pentanoyloctahydro-1H-pyrrolo[2,3-c]pyridine-1-carbonyl)pyrrolidin-1-yl)butan-2-yl)carbamoyl)benzo[b]thiophen-5-yl)difluoromethyl)phosphonic acid] |
| > 10 | > 10 | CC(=O)N1C[C@@H]2CCN(C(=O)[C@@H]3CCCN3C(=O)[C@@H](NC(=O)c3cc4cc(C(F)(F)P(=O)(O)O)ccc4s3)C(C)(C)C)[C@@H]2C1 [Compound 92, ((2-(((S)-1-((S)-2-((3aS,6aS)-5-acetyloctahydropyrrolo[3,4-b]pyrrole-1-carbonyl)pyrrolidin-1-yl)-3,3-dimethyl-1-oxobutan-2-yl)carbamoyl)benzo[b]thiophen-5-yl)difluoromethyl)phosphonic acid] |
| > 10 | > 10 | CCCCC(=O)N1C[C@@H]2CCN(C(=O)[C@@H]3CCCN3C(=O)[C@@H](NC(=O)c3cc4cc(C(F)(F)P(=O)(O)O)ccc4s3)C(C)(C)C)[C@@H]2C1 [Compound 93, ((2-(((S)-3,3-dimethyl-1-oxo-1-((S)-2-((3aS,6aS)-5-pentanoyloctahydropyrrolo[3,4-b]pyrrole-1-carbonyl)pyrrolidin-1-yl)butan-2-yl)carbamoyl)benzo[b]thiophen-5-yl)difluoromethyl)phosphonic acid] |
| > 10 | > 10 | CC(=O)N1CC[C@H]2CN(C(=O)[C@@H]3CCCN3C(=O)[C@@H](NC(=O)c3cc4cc(C(F)(F)P(=O)(O)O)ccc4s3)C(C)(C)C)C[C@H]21 [Compound 95, ((2-(((S)-1-((S)-2-((3aS,6aS)-1-acetyloctahydropyrrolo[3,4-b]pyrrole-5-carbonyl)pyrrolidin-1-yl)-3,3-dimethyl-1-oxobutan-2-yl)carbamoyl)benzo[b]thiophen-5-yl)difluoromethyl)phosphonic acid] |
| > 10 | > 10 | CCCCC(=O)N1CC[C@H]2CN(C(=O)[C@@H]3CCCN3C(=O)[C@@H](NC(=O)c3cc4cc(C(F)(F)P(=O)(O)O)ccc4s3)C(C)(C)C)C[C@H]21 [Compound 96, ((2-(((S)-3,3-dimethyl-1-oxo-1-((S)-2-((3aS,6aS)-1-pentanoyloctahydropyrrolo[3,4-b]pyrrole-5-carbonyl)pyrrolidin-1-yl)butan-2-yl)carbamoyl)benzo[b]thiophen-5-yl)difluoromethyl)phosphonic acid] |
